Source: patent publication US10287267B2, “Isoquinolin-3-yl carboxamides and preparation and use thereof” (Samumed, LLC, priority 2016, dated 2019)
Where two headings read alike, the source gives them in different places.

Assays:
[1] = tested on: Wnt pathway (Sp5-Luc reporter, TCF/LEF binding sites) in SW480 colon carcinoma cells; test: Screening assay for Wnt activity: Sp5-Luc reporter gene assay; format: cell-based, human; conditions: Homo sapiens; for EC50: Sp5-Luc reporter, SW480 cells, 36 to 48 hours; for inhibition at 10 µM: SW480, read-out: percent inhibition at 10 μM;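 as to all read-outs here: firefly luciferase luminescence read in stably transduced SW480 cells carrying the Sp5 promoter reporter with eight TCF/LEF sites, compounds given in 0.1% DMSO final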
Experimental: The screening assay for Wnt activity is described as follows.
Following incubation, 15 μl of BriteLite Plus luminescence reagent (Perkin Elmer) was added to each well of the 384-well assay plates. The plates were placed on an orbital shaker for 2 min and then luminescence was quantified using the Envision (Perkin Elmer) plate reader.

[2] = biological target: recombinant DYRK1A kinase (Homo sapiens (Human), UniProt Q13627); test: DYRK1A kinase assay (Ser/Thr 18 peptide Z-lyte FRET); format: biochemical; conditions: 30 μM ATP, 1 h room temperature;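 also: Read-out is the coumarin to fluorescein emission ratio, referenced to unphosphorylated (0%) and phosphorylated (100%) Ser/Thr 18 peptide controls, values from dose-response curves by non-linear regression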
recombinant GSK3β kinase = recombinant GSK3β kinase (Homo sapiens (Human), UniProt P49841); test: GSK3β kinase assay (Ser/Thr 09 peptide Z-lyte FRET); format: biochemical; conditions: 46 μM ATP, 1 h room temperature;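 also: kinase activity read as coumarin to fluorescein emission ratio, 11-point threefold dilutions from 10 µM to 0.0003 µM in duplicate, unphosphorylated and phosphorylated peptide as 0% and 100% controls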
[3] = tested on: Tau phosphorylation at Ser396 (pSer396); test: Tau phosphorylation assay (pSer396 ELISA / western blot) in SH-SY5Y cells; format: cell-based, human; conditions: Homo sapiens, read-out: pSer396 Tau EC50;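 also: EC50 for reduction of Tau pSer396 in lysed cells, measured by colorimetric ELISA or chemiluminescent western blot, both using the same pSer396 antibody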
Experimental: Two days before treatment, cells were seeded onto 96 well plates at 5×10^4 cells/well.
Wells were visually checked for cell death or change in morphology and supernatants were tested for cytotoxicity by measurement of lactate dehydrogenase release (LDH, CytoToxOne kit, Promega) if necessary.
Cells were lysed with RIPA buffer complemented with phosphatase and protease inhibitors then lysates were spun down at 12,000 g for 10 min to remove any cellular debris. Lysates are then either directly tested for pSer396 by ELISA (Life Technology, Kit KHB7031) or loaded on NuPage Bis-Tris gels for western blot analysis. Colorimetric detection of ELISA signal is performed by Cytation3 plate reader (Biotek) and the chemiluminescence signal for HRP-linked antibodies used in western blotting is detected using a Carestream Image Station. The same pSer396 antibody is used for detection of pTau in both assays.

[4] = tested on: SW480 colon carcinoma cells; test: Cell viability assay (CellTiter-Glo); format: cell-based, human; conditions: Homo sapiens; for EC50: 96 h, SW480 cells, CellTiter-Glo, four days incubation; for inhibition at 10 µM: SW480, read-out: percent inhibition at 10 μM
[5] = tested on: α-smooth muscle actin (αSMA) positive LL29 cells; test: Inhibition of fibrotic process: αSMA in TGF-β1 treated primary human fibroblasts from IPF patients; format: cell-based; conditions: Homo sapiens, Fibroblast; for EC50: 96 h, Table 8, LL29 fibroblasts from IPF patients, TGF-β1 20 ng/mL, 4 days, dose-response 10 μM to 0.94 nM; for inhibition at 10 µM: read-out: percent value in parentheses beside EC50 >10 μM;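 as to all read-outs here: controls were TGF-β1 stimulated wells with DMSO vehicle (positive) and cells given DMSO alone (negative), cultured in F12 medium with 1% fetal bovine serum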
IL-6 = IL-6 inhibition in LPS-stimulated human peripheral blood mononuclear cells (HTRF); format: cell-based; conditions: Homo sapiens, PBMC; for inhibition at 10 µM: read-out: percent value in parentheses beside EC50 >10 μM; for EC50: Table 9, huPBMCs, LPS 50 ng/mL, 22 hours, dose-response starting from 10 μM;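 as to all read-outs here: IL-6 detected by HTRF with an XL665- and Cryptate-labelled anti-IL-6 antibody pair, samples run in duplicate, EC50 obtained from a four-parameter Levenberg-Marquardt curve fit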
Experimental: After 22 hour incubation, a mixture of anti-IL6 XL665 and anti-IL-6 Cryptate diluted in reconstitution buffer (Catalog #62IL6PEC, Cisbio Inc., Bedford, Mass.) was added to each well. […] All samples were processed in duplicate. […] EC50 was determined using software generated by Dotmatics Limited (Windhill Bishops Stortford Herts, UK) using the Levenberg-Marquardt 4 parameter fitting procedure with finite different gradients.

[6] = SH-SY5Y cells, overnight (16-18 h) exposure

Sequence of recombinant GSK3β kinase (P49841 whole entry): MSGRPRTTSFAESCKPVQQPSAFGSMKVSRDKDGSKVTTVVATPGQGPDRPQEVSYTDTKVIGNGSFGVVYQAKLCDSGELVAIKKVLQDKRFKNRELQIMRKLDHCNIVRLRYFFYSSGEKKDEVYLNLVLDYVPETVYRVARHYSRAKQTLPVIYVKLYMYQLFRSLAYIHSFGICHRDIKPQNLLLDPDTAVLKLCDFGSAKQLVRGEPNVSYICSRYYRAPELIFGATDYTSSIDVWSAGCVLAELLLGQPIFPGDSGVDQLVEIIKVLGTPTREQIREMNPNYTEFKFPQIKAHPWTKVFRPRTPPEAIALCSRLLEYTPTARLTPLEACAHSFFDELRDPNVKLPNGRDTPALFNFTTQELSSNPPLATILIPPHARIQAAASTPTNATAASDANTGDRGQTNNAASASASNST

| Compound | EC50 [1] | EC50 [2] | EC50 (recombinant GSK3β kinase) | EC50 [3, 6] | EC50 [4] | EC50 [5] | inhibition at 10 µM (IL-6) | EC50 (IL-6) | inhibition at 10 µM [1] | EC50 ([3]; SH-SY5Y) | inhibition at 10 µM [4] | inhibition at 10 µM [5] |
| --- | --- | --- | --- | --- | --- | --- | --- | --- | --- | --- | --- | --- |
| O=C(Nc1cc2cc(-c3cnc4n3CCNC4)ccc2cn1)C1CCN(CC2(C(F)(F)F)CC2)CC1 [Compound 990, N-(6-(5,6,7,8-Tetrahydroimidazo[1,2-a]pyrazin-3-yl)isoquinolin-3-yl)-1-((1-(trifluoromethyl)cyclopropyl)methyl)piperidine-4-carboxamide] | 2860 nM | 21.3 nM | 100 nM | 1800 nM | 3550 nM | 782 nM | 0% | > 10000 nM | – | – | – | – |
| Cn1cc(-c2ccc3cnc(NC(=O)C4CCN(CC5(C(F)(F)F)CC5)CC4)cc3c2)cn1 [Compound 310, N-(6-(1-Methyl-1H-pyrazol-4-yl)isoquinolin-3-yl)-1-((1-(trifluoromethyl)cyclopropyl)methyl)piperidine-4-carboxamide] | 1460 nM | 6.2 nM | 105 nM | 628 nM | 5350 nM | 294 nM | – | 1170 nM | – | – | – | – |
| C[C@@H]1CCCN1CC(=O)Nc1cc2cc(-c3cnco3)ccc2cn1 [Compound 982, (R)-2-(2-Methylpyrrolidin-1-yl)-N-(6-(oxazol-5-yl)isoquinolin-3-yl) acetamide] | 2710 nM | 19.2 nM | 265 nM | 1100 nM | 1210 nM | 767 nM | – | 2790 nM | – | – | – | – |
| Cc1cc(-c2ccc3cnc(NC(=O)C4CCN(CCC(F)(F)F)CC4)cc3c2)on1 [Compound 307, N-(6-(3-Methylisoxazol-5-yl)isoquinolin-3-yl)-1-(3,3,3-trifluoropropyl) piperidine-4-carboxamide] | > 10000 nM | 6220 nM | 5260 nM | 2080 nM | > 10000 nM | 7150 nM | 4.3% | > 10000 nM | 25.9% | – | – | – |
| Cn1cc(-c2ccc3cnc(NC(=O)CN4CC[C@@H](F)C4)cc3c2)cn1 [Compound 274, 2-[(3R)-3-fluoropyrrolidin-1-yl]-N-[6-(1-methylpyrazol-4-yl)-3-isoquinolyl]acetamide] | 3720 nM | 5.9 nM | 25 nM | 535 nM | 4050 nM | 195 nM | – | 3220 nM | – | – | – | – |
| Cn1cc(-c2ccc3cnc(NC(=O)C4CCN(Cc5ccccc5)CC4)cc3c2)cn1 [Compound 335, 1-Benzyl-N-(6-(1-methyl-1H-pyrazol-4-yl)isoquinolin-3-yl)piperidine-4-carboxamide] | 993 nM | 3.8 nM | 71 nM | 289 nM | 1120 nM | 111 nM | – | 401 nM | – | – | – | – |
| Cn1cc(-c2ccc3cnc(NC(=O)CN4C5CCC4CC5)cc3c2)nn1 [Compound 513, 2-(7-Azabicyclo[2.2.1]heptan-7-yl)-N-(6-(1-methyl-1H-1,2,3-triazol-4-yl)isoquinolin-3-yl)acetamide] | 6430 nM | 10.4 nM | 43 nM | – | 9060 nM | 1350 nM | 14.5% | > 10000 nM | – | 864 nM | – | – |
| CN1CCC(N2CCC(C(=O)Nc3cc4cc(-c5cn(C)nn5)ccc4cn3)CC2)CC1 [Compound 477, 1′-Methyl-N-(6-(1-methyl-1H-1,2,3-triazol-4-yl)isoquinolin-3-yl)-[1,4′-bipiperidine]-4-carboxamide] | 327 nM | 1.1 nM | 6 nM | 188 nM | 719 nM | 77 nM | – | 2990 nM | – | – | – | – |
| Cc1nnc(-c2ccc3cnc(NC(=O)C4(F)CCN(CC(C)C)CC4)cc3c2)o1 [Compound 309, 4-Fluoro-1-isobutyl-N-(6-(5-methyl-1,3,4-oxadiazol-2-yl)isoquinolin-3-yl) piperidine-4-carboxamide] | > 10000 nM | 34.3 nM | 120 nM | 1220 nM | > 10000 nM | 14 nM | 4.5% | > 10000 nM | 43.5% | – | 9.6% | – |
| Cc1ncc(-c2ccc3cnc(NC(=O)CN4CCN(C)CC4)cc3c2)o1 [Compound 1019, N-(6-(2-Methyloxazol-5-yl)isoquinolin-3-yl)-2-(4-methylpiperazin-1-yl) acetamide] | 3800 nM | 28.9 nM | 158 nM | 1500 nM | 9380 nM | 6530 nM | – | 8970 nM | – | – | – | – |
| Cn1cc(-c2ccc3cnc(NC(=O)[C@@H]4CCCO4)cc3c2)cn1 [Compound 71, (S)—N-(6-(1-Methyl-1H-pyrazol-4-yl)isoquinolin-3-yl)tetrahydrofuran-2-carboxamide] | 3900 nM | 13.6 nM | 62 nM | 1510 nM | 8100 nM | > 10000 nM | – | 6730 nM | – | – | – | 33.4% |
| Cn1cc(-c2ccc3cnc(NC(=O)[C@H]4CC[C@H](N(C)C)CC4)cc3c2)nn1 [Compound 443, trans-4-(Dimethylamino)-N-(6-(1-methyl-1H-1,2,3-triazol-4-yl)isoquinolin-3-yl)cyclohexane-1-carboxamide] | 397 nM | 2.2 nM | 13 nM | 289 nM | 1680 nM | 371 nM | – | 3290 nM | – | – | – | – |
| Cc1nnc(-c2ccc3cnc(NC(=O)C4(F)CCCCC4)cc3c2)s1 [Compound 883, 1-Fluoro-N-(6-(5-methyl-1,3,4-thiadiazol-2-yl)isoquinolin-3-yl)cyclohexane-1-carboxamide] | > 10000 nM | 8.9 nM | 76 nM | 1100 nM | > 10000 nM | > 10000 nM | 9.1% | > 10000 nM | 43.2% | – | 35.5% | 14% |
| O=C(Nc1cc2cc(-c3cncs3)ccc2cn1)C1CC(F)(F)C1 [Compound 699, 3,3-Difluoro-N-(6-(thiazol-5-yl)isoquinolin-3-yl)cyclobutane-1-carboxamide] | 541 nM | 2.1 nM | 24 nM | 423 nM | 834 nM | 234 nM | – | 410 nM | – | – | – | – |
| Cc1ncc(-c2ccc3cnc(NC(=O)C4CCC(F)(F)CC4)cc3c2)n1C [Compound 121, N-(6-(1,2-Dimethyl-1H-imidazol-5-yl)isoquinolin-3-yl)-4,4-difluorocyclohexanecarboxamide] | 3500 nM | 3.4 nM | 53 nM | 1030 nM | 4310 nM | 1080 nM | – | 3650 nM | – | – | – | – |
| Cn1cc(-c2cc3cc(NC(=O)C4CCNCC4)ncc3cc2F)cn1 [Compound 369, N-(7-Fluoro-6-(1-methyl-1H-pyrazol-4-yl)isoquinolin-3-yl)piperidine-4-carboxamide] | 743 nM | 2.8 nM | 101 nM | 970 nM | 864 nM | 295 nM | – | 1130 nM | – | – | – | – |
| C[C@@H](F)CN1CCC(C(=O)Nc2cc3cc(-c4cnn(C)c4)ccc3cn2)CC1 [Compound 313, (R)-1-(2-Fluoropropyl)-N-(6-(1-methyl-1H-pyrazol-4-yl)isoquinolin-3-yl) piperidine-4-carboxamide] | 577 nM | 2.5 nM | 39 nM | 330 nM | 711 nM | 105 nM | – | 1010 nM | – | – | – | – |
